The values that follow come from US20190184069A1, “ANTIMICROBIAL COMPOSITIONS COMPRISING MINOCYCLINE AND DEGRADATION PRODUCTS OF OXIDIZED CELLULOSE” (Omrix Biopharmaceuticals Ltd., priority 2017, published 2019).

Assay [1] relates to S. aureus. As to the kind of experiment: Primary stage MIC measurement of antibiotic alone (OD 600 nm growth curves, 18 h). It is filed as cell-based, Staphylococcus aureus. An excerpt: The following day, the turbidity of the actively-growing broth culture was adjusted with Calcium-adjusted Mueller Hinton broth II (MHBII) to be equivalent to that of a 0.5 McFarland standard (1×10^8 CFU/ml). The broth culture was maintained under ambient conditions prior to use.
The method used in this stage was based on the classic Minimum Inhibitory Concentration (MIC) measurements, as described by the Clinical and Laboratory Standards Institute (CLSI) document M07-A9: “Method for Dilution Antimicrobial Susceptibility Test for Bacteria that Grow Aerobically”. While classic MIC measurements require visual inspection of plates for bacterial growth after 18 hours, growth was monitored in the present study according to optical density (OD) at 600 nm, using an ELISA reader (MultiSkan™ FC ELISA reader, Thermo Fisher Scientific, Massachusetts, USA), thereby obtaining bacterial growth curves for tested antibiotic solutions.
Columns 1 and 3-12: 100 μl of MHBII alone was added to each well.
[…]: 200 μl of a solution of antibiotic in MHBII at the highest concentration to be tested was added to each well.
A series of 2-fold dilutions was performed, wherein 100 μl of solution of antibiotic was withdrawn from each well of column 2, transferred to the corresponding well of column 3, and mixed.
The dilution was then repeated by transfer from column 3 to column 4, and so on, until column 11, when the 100 μl of solution of antibiotic withdrawn from each well of column 11 was discarded.
The 5×10^6 CFU/ml stock suspension which had been prepared in advance was transferred into a reservoir and 10 μl of the stock suspension were added into each well of columns 2-11 using a multichannel pipette to obtain a final 5×10^5 CFU/ml suspension.
The plate was then incubated at 37° C. with shaking in the ELISA reader and the optical density at 600 nm was read every 20 minutes for a total of 18 hours.
The average OD reading obtained for each antibiotic concentration was calculated and plotted against time to obtain a growth curve.
The MIC was determined as the first antibiotic concentration at which […] by the end of the 18-hour period.

In assay [2] the test system is S. aureus. The following applies: cited from earlier work.

On to `CN(C)c1ccc(O)c2c1C[C@H]1C[C@H]3[C@H](N(C)C)C(O)=C(C(N)=O)C(=O)[C@@]3(O)C(O)=C1C2=O` [Minocycline, minocycline], for which the “MIC as single antibiotics in the absence of ORC (first stage MIC results)” value in assay [1] was found to be 0.25 mg/L.
Regarding `CO[C@H]1/C=C/O[C@@]2(C)Oc3c(C)c(O)c4c(O)c(c(/C=N/N5CCN(C)CC5)c(O)c4c3C2=O)NC(=O)/C(C)=C\C=C\[C@H](C)[C@H](O)[C@@H](C)[C@@H](O)[C@@H](C)[C@H](OC(C)=O)[C@@H]1C` [Rifampin, rifampin], in assay [1], the “MIC as single antibiotics in the absence of ORC (first stage MIC results)” value is 0.015 mg/L. For the same compound, in assay [2], the “MIC values for S. aureus according to the literature” value was 0.004 to 0.015 mg/L.
